# Measurements from patent publication US20210378993A1 (Nacuity Pharmaceuticals, Inc., priority 2020, published 2021).
# Values joined by “and” are separate entries in the source; they are usually repeats but may differ in a detail not shown here. Identical values can stand only once.
# How the values were obtained:
# [1] = biological target: T1, glutamate cysteine ligase (GCL, EC 6.3.2.2) (Homo sapiens, UniProt P48506); conditions: cited from earlier work
# T1 sequence (P48506 1-637): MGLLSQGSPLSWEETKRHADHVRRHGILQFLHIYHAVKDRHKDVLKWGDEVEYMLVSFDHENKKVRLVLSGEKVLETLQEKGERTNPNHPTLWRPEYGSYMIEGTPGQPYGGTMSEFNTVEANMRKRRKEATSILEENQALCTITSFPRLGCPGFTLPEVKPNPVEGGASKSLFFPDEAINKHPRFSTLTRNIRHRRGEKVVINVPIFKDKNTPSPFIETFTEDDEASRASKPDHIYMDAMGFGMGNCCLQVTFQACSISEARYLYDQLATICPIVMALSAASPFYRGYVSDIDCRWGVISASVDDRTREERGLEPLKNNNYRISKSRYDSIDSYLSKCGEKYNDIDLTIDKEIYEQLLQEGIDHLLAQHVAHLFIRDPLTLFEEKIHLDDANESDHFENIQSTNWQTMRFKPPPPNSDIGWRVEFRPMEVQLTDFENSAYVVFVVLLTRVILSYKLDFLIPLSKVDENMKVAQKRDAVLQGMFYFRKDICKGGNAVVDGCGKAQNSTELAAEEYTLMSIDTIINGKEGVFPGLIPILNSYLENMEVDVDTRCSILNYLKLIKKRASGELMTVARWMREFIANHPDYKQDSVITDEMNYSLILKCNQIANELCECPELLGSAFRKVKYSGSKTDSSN
# T1 sequence (P48507 1-274 partner): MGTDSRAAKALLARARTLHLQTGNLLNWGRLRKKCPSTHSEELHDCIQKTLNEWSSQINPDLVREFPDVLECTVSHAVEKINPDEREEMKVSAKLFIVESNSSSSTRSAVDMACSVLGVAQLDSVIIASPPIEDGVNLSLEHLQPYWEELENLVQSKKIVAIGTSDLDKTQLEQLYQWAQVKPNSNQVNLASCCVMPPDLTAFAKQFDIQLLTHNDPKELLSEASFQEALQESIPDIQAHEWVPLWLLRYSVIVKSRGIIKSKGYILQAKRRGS
# [2] = system: human cystinotic fibroblasts (GM00008); assay: Cytotoxicity (MTT cell viability) in cystinotic fibroblast cell culture; format: cell-based; conditions: for cell viability (cytotoxicity) versus no treatment: 25, 50 or 75 μM, 48 and 72 hours (FIGS. 1 and 2), MTT; for increase of human cystinotic cell viability compared to cysteamine at the same concentration: 25 μM
# Procedure: Appropriate concentrations of the NACA and diNACA were selected and incubated along with human cystinotic fibroblasts in media. […] Media was then removed, and cells were incubated in 0.5mg/ml MTT (3-(4,5-dimethylthiazol-2-yl)-2,5-diphenyltetrazolium bromide) reconstituted in media. A colorimetric assay used reduction of the yellow tetrazolium salt (MTT) to a purple formazan salt in order to measure cellular metabolic activity as a proxy for cell viability. Treated cells were incubated in MTT for 4 hours at 37° C., after which time intracellular purple formazan salt crystals were visible under a microscope. MTT solution was then removed, and DMSO was added to each well in order to lyse cells and dissolve the salt crystals. After 1 hour incubation at 37° C., absorbance was measured on a multiwell plate reader (Biotek FL6000) at 570 nm, and percentage cell viability calculated.
# [3] = system: human cystinotic fibroblasts (GM00008); assay: Screening of cystine-depleting activity in human cystinotic cell-based model; conditions: 50 μM
# Procedure: A specialized in vitro human cystinotic cell-based model was used for determining cystine content (Omran et al., 2011c). […]
# The cells were recovered from storage at −80° C. and suspended in 100 μl […] N-ethyl malimide prepared in phosphate buffer (pH 7.6) followed by sonication for 10 seconds which was repeated 3 times with 20 second cooling intervals on ice. The solution was centrifuged at 800 G for 10 min at 4° C. (Biofuge primo R Heraeus centrifuge). To this cell supernatant (40 μl) was added 4 μl of 4M NaBH4 in 7:3 0.1 M NaOH/DMSO. After 5 min incubation at room temperature, 800 μl of sodium acetate buffer (pH 4.7) was added. A 5 μl volume of the diluted solution was added to 100 μl of 0.6mg/ml solution of Papain-SSCH3 in a 96 well plate and incubated for one hour at room temperature. A 100 μl volume of 4.9 mM L-benzoylarginine p-nitroanilide (L-BAPNA) solution in sodium acetate buffer (pH 4.0) was added to each well of the 96 well plate, gently mixed and incubated for further one hour at room temperature. Absorption at 410 nm was measured and the cysteine levels were calculated by comparison to known cysteine standard.
# The protein concentration in every sample was measured according to Bradford method. Briefly, 200 μl of Bradford reagent was added to 5 μl of cell supernatant in each well of a 96 well plate and incubated for 5 minutes at room temperature and the absorption at 595 nm was measured. The protein concentration was calculated using a range of concentrations of bovine serum albumin as a standard. The cysteine levels were determined following normalization to μM cysteine per mg of protein.
# rabbit eyes = assay: Ophthalmic tolerability, daily Draize scores after topical ocular administration; format: in vivo; conditions: rabbits, 1% in prototype vehicle, per animal and eye; for Daily Draize Scores for Chemosis, Day 1 / Daily Draize Scores for Discharge, Day 1 / Daily Draize Scores for Hyperemia, Day 1 / Daily Draize Scores for Chemosis, Day 2 / Daily Draize Scores for Discharge, Day 2 / Daily Draize Scores for Hyperemia, Day 2 / Daily Draize Scores for Chemosis, Day 3 / Daily Draize Scores for Discharge, Day 3 / Daily Draize Scores for Hyperemia, Day 3 / Daily Draize Scores for Chemosis, Day 4 / Daily Draize Scores for Discharge, Day 4 / Daily Draize Scores for Hyperemia, Day 4 / Daily Draize Scores for Chemosis, Day 5 / Daily Draize Scores for Discharge, Day 5 / Daily Draize Scores for Hyperemia, Day 5 / Daily Draize Scores for Chemosis, Day 6 / Daily Draize Scores for Hyperemia, Day 6 / Daily Draize Scores for Discharge, Day 6: bilateral topical four times a day; for Daily Draize Scores for Chemosis, Day 7 / Daily Draize Scores for Hyperemia, Day 7 / Daily Draize Scores for Discharge, Day 7 / Daily Draize Scores for Chemosis, Day B / Daily Draize Scores for Discharge, Day B / Daily Draize Scores for Hyperemia, Day B: bilateral topical; for Daily Draize Scores for Chemosis, Day 7 / Daily Draize Scores for Hyperemia, Day 7 / Daily Draize Scores for Discharge, Day 7: once on Day 7; for Daily Draize Scores for Chemosis, Day B / Daily Draize Scores for Discharge, Day B / Daily Draize Scores for Hyperemia, Day B: (baseline)
# Procedure: To simulate topical ocular exposure to an ophthalmic insert containing AGENT, prototype ophthalmic formulations were prepared containing either 1% NPI-001, 1% diNACA, 1% NAC or vehicle and tested to evaluate ocular tolerability. Three rabbits per group were administered 1% NPI-001, 1% di-NAC, 1% NAC in a prototype vehicle, via bilateral topical administration four times a day for 6 days, and once on Day 7.
# [4] = NACA in aqueous humor after topical ocular administration; format: in vivo; conditions: rabbit eyes, 1% topical ocular
# Procedure: The thiol moiety of NAC, NACA, diNACA and their respective internal standards oxidizes quickly in plasma through formation of disulfides. In order to determine total NAC and total NACA levels in plasma, tris(2-carboxyethyl)phosphine (TCEP) is added during the extraction to reduce disulfide bonds (King et al., 2019). Ammonium bicarbonate is added to control sample pH near neutral, as TCEP will otherwise acidify the aliquoted samples and hinder derivatization. The free analyte is then derivatized to a stable thioether using 2-chloro-1-methylpyridinium iodide (CMPI). N-acetyl-L-cysteine is used as the reference standard. The assay would not discern the enantiomer, N-acetyl-D-cysteine, if present. A sample volume of 25.0 μL is aliquoted into a 1.2 mL 96-well plate to which is added, in sequence, 25.0 μL internal standard solution (1000 ng/mL NAC-D3 and 1000 ng/mL NACA-D3 in water), 50.0 μL of ammonium bicarbonate (100 mM), 5.0 μL CMPI (60 mM in water), and 5.0 μL of TCEP (60 mM in water). Samples are allowed to react for 30 minutes. To precipitate proteins, 500 μL of acetonitrile is then added to all samples. The plate is covered and the mixtures are shaken and centrifuged. […]
# Samples were analyzed on a Waters Acquity liquid chromatograph interfaced with a Thermo Scientific TSQ Vantage triple quadrupole mass spectrometer with ESI ionization (King et al., 2019). […]
Structure (SMILES),cell viability (cytotoxicity) versus no treatment [2],"relative cystine concentration as percent of control, comparison with cysteamine ([3]; 6 hours (FIG. 3))","relative cystine concentration as percent of control, comparison with cysteamine ([3]; 24 hours (FIG. 4))","relative cystine concentration as percent of control, comparison with cysteamine ([3]; 48 hours (FIG. 5))","Daily Draize Scores for Chemosis, Day 1 (rabbit eyes)","Daily Draize Scores for Discharge, Day 1 (rabbit eyes)","Daily Draize Scores for Hyperemia, Day 1 (rabbit eyes)","Daily Draize Scores for Chemosis, Day 2 (rabbit eyes)","Daily Draize Scores for Discharge, Day 2 (rabbit eyes)","Daily Draize Scores for Hyperemia, Day 2 (rabbit eyes)","Daily Draize Scores for Chemosis, Day 3 (rabbit eyes)","Daily Draize Scores for Discharge, Day 3 (rabbit eyes)","Daily Draize Scores for Hyperemia, Day 3 (rabbit eyes)","Daily Draize Scores for Chemosis, Day 4 (rabbit eyes)","Daily Draize Scores for Discharge, Day 4 (rabbit eyes)","Daily Draize Scores for Hyperemia, Day 4 (rabbit eyes)","Daily Draize Scores for Chemosis, Day 5 (rabbit eyes)","Daily Draize Scores for Discharge, Day 5 (rabbit eyes)","Daily Draize Scores for Hyperemia, Day 5 (rabbit eyes)","Daily Draize Scores for Chemosis, Day 6 (rabbit eyes)",further results
"N[C@@H](CS)C(=O)O [cysteine, L-cysteine]",–,–,–,–,–,–,–,–,–,–,–,–,–,–,–,–,–,–,–,–,Km [1]: 100 to 300 µM
CC(=O)NC(CS)C(N)=O (centres unmarked),increased cell viability,statistically superior to cysteamine,statistically superior,statistically superior to cysteamine,0,0,0,0,0,0,0,0,0,0,0,0,0,0,0,0,"increase of human cystinotic cell viability compared to cysteamine at the same concentrations ([2]; all concentrations (25, 50, 75 μM), 72 hours (FIG. 2)): statistically superior to cysteamine; relative cystine concentration as percent of control, comparison with cysteamine ([3]; 72 hours (FIG. 6)): superior to cysteamine; Daily Draize Scores for Hyperemia, Day 6 (rabbit eyes): 0; Daily Draize Scores for Discharge, Day 6 (rabbit eyes; listed as NPI-001): 0.5 and 0 (5×); Daily Draize Scores for Chemosis, Day 7 (rabbit eyes): 0; Daily Draize Scores for Hyperemia, Day 7 (rabbit eyes): 0; Daily Draize Scores for Discharge, Day 7 (rabbit eyes; listed as NPI-001): 0 (4×) and 0.5 (2×); Daily Draize Scores for Chemosis, Day B (rabbit eyes): 0; Daily Draize Scores for Discharge, Day B (rabbit eyes): 0; Daily Draize Scores for Hyperemia, Day B (rabbit eyes): 0; NACA in aqueous humor [4]: detectable"
"N[C@@H](CCC(=O)N[C@@H](CS)C(=O)NCC(=O)O)C(=O)O [GSH, c-L-glutamyl-L-cysteinyl-glycine]",–,–,–,–,–,–,–,–,–,–,–,–,–,–,–,–,–,–,–,–,"Ki ([1]; read-out: Ki, nonallosteric competitive inhibition of GCL): 2300 µM"
"CC(=O)NC(CSSCC(NC(C)=O)C(N)=O)C(N)=O [diNACA, (2R,2R′)-3,3′-disulfanediyl bis(2-acetamidopropanamide)]",increased cell viability,statistically superior to cysteamine,superior to cysteamine,statistically superior to cysteamine,0,0,0,0,0,0,0,0,0,0,0 (3×) and 1 (2×) and 0.5,0,0,0,0,0,"increase of human cystinotic cell viability compared to cysteamine at the same concentration ([2]; 48 hours (FIG. 1)): statistically superior to cysteamine; increase of human cystinotic cell viability compared to cysteamine at the same concentration ([2]; 72 hours (FIG. 2)): statistically superior to cysteamine; depletion of cystine compared to control ([3]; 72 hours (FIG. 6)): 20%; Daily Draize Scores for Discharge, Day 6 (rabbit eyes): 0 (4×) and 0.5 (2×); Daily Draize Scores for Hyperemia, Day 6 (rabbit eyes): 0; Daily Draize Scores for Chemosis, Day 7 (rabbit eyes): 0; Daily Draize Scores for Discharge, Day 7 (rabbit eyes): 0 (5×) and 0.5; Daily Draize Scores for Hyperemia, Day 7 (rabbit eyes): 0; Daily Draize Scores for Chemosis, Day B (rabbit eyes): 0; Daily Draize Scores for Discharge, Day B (rabbit eyes): 0; Daily Draize Scores for Hyperemia, Day B (rabbit eyes): 0; NACA in aqueous humor [4]: detectable"
